Results reported in patent publication US6096770A, “Anthranilic acid analogs” (American Home Products Corporation, priority 1998, dated 2000).
Where two headings read alike, the source gives them in different places.

How the values were obtained:
[1] = system: Isolated Rat Bladder Strips; assay: Inhibition of Contractions in Isolated Rat Bladder Strips (15 mM KCl-enhanced contractile activity); type: tissue-based, Sprague-Dawley rats; conditions: for IC50: 0.5 h, 15 mM KCl, 37 deg. C., pH 7.4, 30 minute challenge, read-out: IC50 Bladder (B): concentration required to elicit 50% inhibition of pre-drug contractile activity
Description: Sprague-Dawley rats (150-200 g) are rendered unconscious by CO2 asphyxiation and then euthanized by cervical dislocation. […] The bladder is opened and then cut into strips 1-2 mm in width and 7-10 mm in length. The strips are subsequently suspended in a 10 mL tissue bath under an initial resting tension of 1.5 g. The strips are held in place by two surgical clips one of which is attached to a fixed hook while the other is attached to an isometric force transducer. […] The carbachol is then washed out and the tissue allowed to relax to its resting level of activity. Following a further 30 min period of recovery an additional 15 mM KCl are introduced into the tissue bath. […] Following stabilization of this enhanced level of contractile activity, incremental increases in the concentration of test compound or vehicle are introduced into the tissue bath. Contractile activity is measured for each compound or vehicle concentration during the last minute of a 30 minute challenge.

Aorta = assay: Inhibition of contractions in aorta (indication of selectivity, Table I); type: cell-based; conditions: for IC50 (A)/IC50 (B): selectivity ratio aorta / bladder

SMILES	IC50 ([1]; isolated rat bladder strips) [µM]	IC50 (A)/IC50 (B) (Aorta)	further results
O=C(Nc1ccccc1C(=O)O)C1=C(c2ccc(C(F)(F)F)cc2)CCC1 [Example 1, 2-{[2-(4-Trifluoromethyl-phenyl)-cyclopent-1-enecarbonyl]-amino}-benzoic acid]	11 ± 4.04		
O=C(O)c1ccccc1NC(=O)c1ncoc1-c1ccc(C(F)(F)F)cc1 [Example 2, 2-{[5-(4-Trifluoromethyl-phenyl)-oxazole-4-carbonyl]-amino}-benzoic acid]	17.9 ± 5.8		
O=C([O-])c1ccccc1NC(=O)c1ncoc1-c1ccc(C(F)(F)F)cc1.[Li+] [Example 3, 2-{[5-(4-Trifluoromethyl-phenyl)-oxazole-4-carbonyl]-amino}-benzoic acid lithium salt]		0.42	IC50 ([1]; Rattus norvegicus, pH 7.4, isolated rat bladder strips): 17.5 ± 12.4 µM; IC50 (Aorta): 7.35 ± 0.25 µM
Cc1noc(-c2ccc(C(F)(F)F)cc2)c1C(=O)Nc1ccccc1C(=O)O [Example 4, 2-{[3-Methyl-5-(4-trifluoromethyl-phenyl)-isoxazole-4-carbonyl]-amino}-benzoic acid]	11.9 ± 3.95		
COc1ccc(/C=C/C(=O)Nc2ccccc2C(=O)O)cc1OC [Tranilast, reference compound]		1.08	potency and bladder selectivity as smooth muscle relaxant (in words) ([1]; in vitro, Table 1): not to be a potent or bladder selective smooth muscle relaxant
